Positions of bridges follow the written chain, without caps; N, C: chain ends. Non-standard residues stand in square brackets, D forms with d. Residues, ends and D or L forms follow the SMILES beside them. *: point of attachment. X2 = C[C@@H]1O[C@H](*)[C@@H](O)[C@H](O)[C@@H]1O; X1 = O[C@H]1[C@H](O)[C@@H](*)OC[C@H]1O; R8 = C=CCCCCCC[C@@](C)(N)C(=O)O; R5 = C=CCCC[C@@](C)(N)C(=O)O; S5 = C=CCCC[C@](C)(N)C(=O)O; Nle = CCCC[C@H](N)C(=O)O; Orn = NCCC[C@H](N)C(=O)O

The first data set is described as follows: Hemolytic activity in human erythrocytes incubated for 1 hr. The class given is toxicity, cell-based, Erythrocyte.
Details: not given
In turn, `CCCC[C@H](NC(=O)[C@H](Cc1cnc[nH]1)NC(=O)[C@H](C)NC(=O)[C@H](CCCC)NC(=O)[C@@H](NC(=O)[C@H](CCCCN)NC(=O)[C@@H]1CCCN1C(=O)[C@H](CC(C)C)NC(=O)[C@@H](NC(=O)[C@H](CCCCN)NC(=O)[C@H](CCCCN)NC(=O)[C@H](CC(C)C)NC(=O)[C@@H](NC(=O)[C@H](CO)NC(=O)[C@H](CC(C)C)NC(=O)[C@H](Cc1ccccc1)NC(=O)CN)[C@@H](C)CC)C(C)C)C(C)C)C(=O)N[C@@H](CCCCN)C(N)=O` (H-GFLSILKKVLPKV[Nle]AH[Nle]K-NH2) gave an HC50 at 1 h of 50 µM.
Same read-out and setting: with `CCCC[C@@H]1NC(=O)[C@@](C)(NC(=O)[C@H](CCCCN)NC(=O)[C@@H]2CCCN2C(=O)[C@H](CC(C)C)NC(=O)[C@@H](NC(=O)[C@H](CCCCN)NC(=O)[C@H](CCCCN)NC(=O)[C@H](CC(C)C)NC(=O)[C@@H](NC(=O)[C@H](CO)NC(=O)[C@H](CC(C)C)NC(=O)[C@H](Cc2ccccc2)NC(=O)CN)[C@@H](C)CC)C(C)C)CCC/C=C\CCC[C@@](C)(C(=O)N[C@@H](CCCCN)C(N)=O)NC(=O)[C@H](Cc2cnc[nH]2)NC(=O)[C@H](C)NC1=O` (H-GFLSILKKVLPK[S5][Nle]AH[S5]K-NH2; staple (Z) 13-17) the figure was 18.1 µM; with `CCCC[C@H](NC(=O)[C@H](Cc1cnc[nH]1)NC(=O)[C@H](C)NC(=O)[C@H](CCCC)NC(=O)[C@@H](NC(=O)[C@H](CCCCN)NC(=O)[C@@H]1CCCN1C(=O)[C@H](CC(C)C)NC(=O)[C@@]1(C)CCC/C=C\CCC[C@](C)(NC(=O)[C@H](CO)NC(=O)[C@H](CC(C)C)NC(=O)[C@H](Cc2ccccc2)NC(=O)CN)C(=O)N[C@@H](CC(C)C)C(=O)N[C@@H](CCCCN)C(=O)N[C@@H](CCCCN)C(=O)N1)C(C)C)C(=O)N[C@@H](CCCCN)C(N)=O` (H-GFLS[S5]LKK[R5]LPKV[Nle]AH[Nle]K-NH2; staple (Z) 5-9), 14.7 µM; with `CCCC[C@@H]1NC(=O)[C@@](C)(NC(=O)[C@H](CCCCN)NC(=O)[C@@H]2CCCN2C(=O)[C@H](CC(C)C)NC(=O)[C@]2(C)CCC/C=C\CCC[C@](C)(NC(=O)[C@H](CO)NC(=O)[C@H](CC(C)C)NC(=O)[C@H](Cc3ccccc3)NC(=O)CN)C(=O)N[C@@H](CC(C)C)C(=O)N[C@@H](CCCN)C(=O)N[C@@H](CCCCN)C(=O)N2)CCC/C=C\CCC[C@@](C)(C(=O)N[C@@H](CCCCN)C(N)=O)NC(=O)[C@H](Cc2cnc[nH]2)NC(=O)[C@H](C)NC1=O` (H-GFLS[S5]L[Orn]K[S5]LPK[S5][Nle]AH[S5]K-NH2; staple (Z) 5-9, 13-17), 13.9 µM.
Consider `CCCC[C@H](NC(=O)[C@H](Cc1cnc[nH]1)NC(=O)[C@H](C)NC(=O)[C@H](CCCC)NC(=O)[C@@H](NC(=O)[C@H](CCCCN)NC(=O)[C@@H]1CCCN1C(=O)[C@]1(C)CCC/C=C/CCCCCC[C@@](C)(NC(=O)[C@H](Cc2ccccc2)NC(=O)CN)C(=O)N[C@@H](CO)C(=O)N[C@@H]([C@@H](C)CC)C(=O)N[C@@H](CC(C)C)C(=O)N[C@@H](CCCCN)C(=O)N[C@@H](CCCCN)C(=O)N[C@@H](C(C)C)C(=O)N1)C(C)C)C(=O)N[C@@H](CCCCN)C(N)=O` (H-GF[R8]SILKKV[S5]PKV[Nle]AH[Nle]K-NH2; staple (E) 3-10), for which the HC50 at 1 h was 20 µM.
For `CCCC[C@H](NC(=O)[C@H](Cc1cnc[nH]1)NC(=O)[C@H](C)NC(=O)[C@H](CCCC)NC(=O)[C@@H](NC(=O)[C@H](CCCCN)NC(=O)[C@@H]1CCCN1C(=O)[C@]1(C)CCC/C=C\CCCCCC[C@@](C)(NC(=O)[C@H](Cc2ccccc2)NC(=O)CN)C(=O)N[C@@H](CO)C(=O)N[C@@H]([C@@H](C)CC)C(=O)N[C@@H](CC(C)C)C(=O)N[C@@H](CCCCN)C(=O)N[C@@H](CCCCN)C(=O)N[C@@H](C(C)C)C(=O)N1)C(C)C)C(=O)N[C@@H](CCCCN)C(N)=O` (H-GF[R8]SILKKV[S5]PKV[Nle]AH[Nle]K-NH2; staple (Z) 3-10), the HC50 at 1 h worked out at 11 µM.
Consider `CC[C@H](C)[C@H](NC(=O)CN)C(=O)N[C@@H](CCSC)C(=O)N[C@@H](CO[C@H]1OC[C@@H](O)[C@@H](O)[C@@H]1O)C(=O)N[C@@H](CO)C(=O)N[C@@H](CC(C)C)C(=O)N[C@@H](CCSC)C(=O)N[C@@H](CCCCN)C(=O)N[C@@H](CCCCN)C(=O)N[C@@H](CC(C)C)C(=O)N[C@@]1(C)CCC/C=C\CCC[C@@](C)(C(=O)N[C@@H](CCCCN)C(N)=O)NC(=O)[C@H]([C@@H](C)CC)NC(=O)[C@H](Cc2cnc[nH]2)NC(=O)[C@H](C)NC1=O` (H-GIMS(X1)SLMKKL[S5]AHI[S5]K-NH2; staple (Z) 11-15), for which the HC50 at 1 h is over 400 µM.
As for `CC[C@H](C)[C@H](NC(=O)CN)C(=O)N[C@@H](CCSC)C(=O)N[C@@H](CO[C@H]1O[C@@H](C)[C@@H](O)[C@@H](O)[C@@H]1O)C(=O)N[C@@H](CO)C(=O)N[C@@H](CC(C)C)C(=O)N[C@@H](CCSC)C(=O)N[C@@H](CCCCN)C(=O)N[C@@H](CCCCN)C(=O)N[C@@H](CC(C)C)C(=O)N[C@@]1(C)CCC/C=C\CCC[C@@](C)(C(=O)N[C@@H](CCCCN)C(N)=O)NC(=O)[C@H]([C@@H](C)CC)NC(=O)[C@H](Cc2cnc[nH]2)NC(=O)[C@H](C)NC1=O` (H-GIMS(X2)SLMKKL[S5]AHI[S5]K-NH2; staple (Z) 11-15), the HC50 at 1 h is over 400 µM.
As for `CC[C@H](C)[C@H](NC(=O)[C@H](CCCCN)NC(=O)[C@H](CCCCN)NC(=O)[C@H](Cc1c[nH]c2ccccc12)NC(=O)[C@H](CC(N)=O)NC(=O)[C@@H](N)C(C)C)C(=O)N[C@@H](CC(C)C)C(=O)NCC(=O)N[C@@H](CCCCN)C(=O)N[C@@]1(C)CCC/C=C\CCC[C@@](C)(C(=O)N[C@@H](CCCCN)C(N)=O)NC(=O)[C@H](C(C)C)NC(=O)[C@H](CCCCN)NC(=O)[C@H]([C@@H](C)CC)NC1=O` (H-VNWKKILGK[S5]IKV[S5]K-NH2; staple (Z) 10-14), the HC50 at 1 h amounted to 69 µM.

Still in this data set, the particulars now being: read-out: Activity.
Turning to `CC[C@H](C)[C@H](NC(=O)CN)C(=O)NCC(=O)N[C@@H](CCCCN)C(=O)N[C@@H](Cc1ccccc1)C(=O)N[C@@H](CC(C)C)C(=O)N[C@@H](Cc1cnc[nH]1)C(=O)N[C@@H](CO)C(=O)N[C@@H](C)C(=O)N[C@@H](CCCCN)C(=O)N[C@@H](CCCCN)C(=O)N[C@@H](Cc1ccccc1)C(=O)NCC(=O)N[C@@H](CCCCN)C(=O)N[C@@H](C)C(=O)N[C@@H](Cc1ccccc1)C(=O)N[C@H](C(=O)NCC(=O)N[C@@]1(C)CCC/C=C\CCC[C@@](C)(C(N)=O)NC(=O)[C@H](CC(N)=O)NC(=O)[C@H](CCSC)NC(=O)[C@H]([C@@H](C)CC)NC1=O)C(C)C` (H-GIGKFLHSAKKFGKAFVG[S5]IMN[S5]-NH2; staple (Z) 19-23), the hemolysis at 1 h amounted to 100%.
The same measure, in the same setting: with `CC[C@H](C)[C@H](NC(=O)CN)C(=O)NCC(=O)N[C@@H](CCCCN)C(=O)N[C@@H](Cc1ccccc1)C(=O)N[C@@H](CC(C)C)C(=O)N[C@@H](Cc1cnc[nH]1)C(=O)N[C@@H](CO)C(=O)N[C@@H](C)C(=O)N[C@@H](CCCCN)C(=O)N[C@@H](CCCCN)C(=O)N[C@@H](Cc1ccccc1)C(=O)NCC(=O)N[C@@H](CCCCN)C(=O)N[C@@H](C)C(=O)N[C@@H](Cc1ccccc1)C(=O)N[C@@]1(C)CCC/C=C\CCC[C@@](C)(C(=O)N[C@@H](CC(N)=O)C(=O)N[C@@H](CO)C(N)=O)NC(=O)[C@H]([C@@H](C)CC)NC(=O)[C@H](CCC(=O)O)NC(=O)CNC1=O` (H-GIGKFLHSAKKFGKAF[S5]GEI[S5]NS-NH2; staple (Z) 17-21) the figure was under 10%.

The term HC50 denotes the concentration that lyses half of the red blood cells. The low end stands for more damage to red cells, the high end for less damage to red cells.

For the origin of these results see ChEMBL document CHEMBL5113383, “Application of the All-Hydrocarbon Stapling Technique in the Design of Membrane-Active Peptides” (J Med Chem, 2022).
